Measurements published in patent US6906046B2 (Celltech R & D Inc., priority 2000, dated 2005).

How the values were obtained:
[1] = tested on: A549 cells; assay: Inhibition of TNF-α induced apoptosis in A549 cells (crystal violet); type: cell-based; conditions: Homo sapiens; inhibition of TNF-α induced apoptosis in A549 cells; percent inhibition at 20 μM or IC50 in μM, given as class symbols; read-out: Apopt inh
Description: The protocol used for determining inhibition of apoptosis in A549 cells was adopted from a system previously described (K. Last-Barney et al., J. of Immunology 141:527-530, 1988). Briefly, 10^5 cells in 200 μL 10% FBS/RPMI antibiotic containing culture medium were plated into 96 well round bottom culture plates and allowed to adhere for 6 hours at 37° C. in a 5% CO2 atmosphere. The media was removed and 100 μL of RPMI+1 μg/mL actinomycin-D was added to each well, followed by 90 μL of test compound solution in 1% DMSO. This was incubated for 1 hour 10 AL TNF-α was added at its EC50 (normally 1 ng/mL FAC) and the plates incubated for 18 hours. The media was aspirated from the plates and 100 μL of 0.5% crystal violet in 20% methanol was added. After 10 minutes the plates were rinsed with water to remove excess stain, air dried, and read on a Spectramax at a wavelength of 590 nm. The data obtained from the Spectramax was converted into percent inhibition data at a concentration of 20 μM or IC50 measured in μM.

[2] = tested on: NFκB; assay: NFκB luciferase reporter assay in TNF-α stimulated A549 cells (E-selectin promoter); type: cell-based; conditions: Homo sapiens; TNF-α stimulated A549 cells, E-selectin promoter luciferase; % inhibition or IC50 in μM, given as class symbols; read-out: NFκB inh
Description: A549 cells were stably transfected with an E-selectin promoter containing three NFκB binding sites driving luciferase expression. For the assay, 5×10^4 cells were incubated in 96 well round bottom plates overnight in 100 μL of 10% FBS/RPMI medium at 37° C. in a 5% CO2 atmosphere. The following morning the medium was removed and 90 μL of a 1% DMSO solution of test compound solution was added and the plates incubated for 1 hour. 10 μL of TNF-α was added at its EC50 (normally 6 ng/mL FAC) to each well and the plate incubated for 5 hours. 100 μL of luciferase buffer was added, and after 10 minutes luminescence was read on a Wallac Victor 1420 Multilabel Counter. The data obtained from the Wallac Victor was converted into % inhibition data or IC50 measured in μM.

| Structure (SMILES) | IC50 [1] | IC50 [2] | other results |
| --- | --- | --- | --- |
| CCCOC(=O)[C@H]1[C@H](C(=O)OCC[Si](C)(C)C)C2C/C(=N\OCc3cccc(F)c3)[C@H]1c1cc(O)ccc12 (racemic) [Example 72, 11-(3-Fluoro-benzyloxyimino)-4-hydroxy-tricyclo[6.2.2.0^2,7]dodeca-2(7),3,5-triene-9,10-dicarboxylic acid 10-propyl ester 9-(2-trimethylsilanyl-ethyl) ester] | < 10 µM | – | – |
| CCCOC(=O)[C@H]1[C@H](C(=O)OCC[Si](C)(C)C)C2C/C(=N\OCC(=O)N3CCN(c4ccccc4)CC3)[C@H]1c1cc(O)ccc12 (stereo in doubt) [Example 73] | – | 10 to 50 µM | – |
| CCCCCN(CCCCC)C(=O)[C@@H]1[C@H](C(=O)N(C)CC(=O)NCc2c(OC)cc(OC)cc2OC)C2CC(=O)[C@H]1c1cc(OCc3ccc(C(=O)N4CCC[C@H]4C(=O)N(C)C)cc3)ccc12 [Example 5] | 10 to 50 µM | – | – |
| CCCOC(=O)[C@H]1[C@H](C(=O)OCC[Si](C)(C)C)C2C/C(=N\NCCO)[C@H]1c1cc(O)ccc12 [Example 56] | < 10 µM | – | – |
| CCCOC(=O)[C@H]1[C@H](C(=O)OCC[Si](C)(C)C)C2C/C(=N\NS(=O)(=O)c3ccccc3)[C@H]1c1cc(O)ccc12 [Example 58] | 10 to 50 µM | – | – |
| CCCOC(=O)[C@H]1[C@H](C(=O)OCC[Si](C)(C)C)C2C/C(=N/OCC(=O)N3CCN(c4ccccc4)CC3)[C@H]1c1cc(O)ccc12 [Example 74] | – | 10 to 50 µM | – |
| CCCOC(=O)[C@H]1[C@H](C(=O)OCC[Si](C)(C)C)C2C/C(=N\NC(=S)NC)[C@H]1c1cc(O)ccc12 [Example 81] | < 10 µM | – | – |
| CCCNC1CC2c3ccc(O)cc3[C@H]1[C@@H](C(=O)OCCC)[C@@H]2C(=O)OCC[Si](C)(C)C (stereo partly shown) [Example 85] | – | 10 to 50 µM | – |
| CCCOC(=O)[C@H]1[C@H](C(=O)OCC[Si](C)(C)C)C2CC(NC)[C@H]1c1cc(O)ccc12 (stereo partly shown) [Example 86] | – | 10 to 50 µM | – |
| CCCOC(=O)[C@H]1[C@H](C(=O)OCC[Si](C)(C)C)C2CC(N(Cc3ccc(C)cc3)C(C)=O)[C@H]1c1cc(O)ccc12 (stereo partly shown) [Example 91] | – | 10 to 50 µM | – |
| CCCOC(=O)[C@H]1[C@H](C(=O)OCC[Si](C)(C)C)C2CC(N(C)C(C)=O)[C@H]1c1cc(OC(C)=O)ccc12 (stereo partly shown) [Example 92] | – | 10 to 50 µM | – |
| CCCOC(=O)[C@H]1[C@H](C(=O)OCC[Si](C)(C)C)C2CC(N(C)C(C)=O)[C@H]1c1cc(O)ccc12 (stereo partly shown) [Example 94] | – | 10 to 50 µM | – |
| COc1ccc(COC(=O)[C@H]2[C@H](C(=O)OCC[Si](C)(C)C)C3CC(O)[C@H]2c2cc(O)ccc23)c(OC)c1 (stereo partly shown) [Example 95] | – | – | inhibition at 20 µM [1]: 6 to 64% |
| COc1ccc(COC(=O)[C@H]2[C@H](C(=O)OCC[Si](C)(C)C)C3CC(O)[C@H]2c2cc(O)ccc23)c(OC)c1 (stereo partly shown) [Example 96] | < 10 µM | – | – |
| CCCOC(=O)[C@H]1[C@H](C(=O)OCC[Si](C)(C)C)C2CC(=CC(=O)OCC)[C@H]1c1cc(O)ccc12 [Example 98] | – | – | inhibition at 20 µM [1]: 6 to 64% |
| CCCOC(=O)[C@H]1[C@H](C(=O)OCC[Si](C)(C)C)C2CC(C)(O)[C@H]1c1cc(O)ccc12 (stereo partly shown) [Example 99] | – | 10 to 50 µM | – |
| C=C1CC2c3ccc(O)cc3[C@H]1[C@@H](C(=O)OCCC)[C@@H]2C(=O)OCC[Si](C)(C)C [Example 101] | < 10 µM | – | – |
| CCCOC(=O)[C@H]1[C@H](C(=O)OCC[Si](C)(C)C)C2CC(O)(CO)[C@H]1c1cc(O)ccc12 (stereo partly shown) [Example 102] | – | – | inhibition at 20 µM [1]: 6 to 64% |
| CCCOC(=O)[C@H]1[C@H](C(=O)OCCS(=O)(=O)c2ccc(C)cc2)C2CC(=O)[C@H]1c1cc(O)ccc12 [Example 106] | – | 10 to 50 µM | – |
| CCCOC(=O)[C@H]1[C@H](C(=O)OCCC(C)(C)C)C2CC(=O)[C@H]1c1cc(O)ccc12 [Example 107] | – | 10 to 50 µM | – |
| CCCOC(=O)[C@@H]1C2C(=O)CC(c3ccc(O)cc32)[C@H]1C(=O)OCCC12CC3CC(CC(C3)C1)C2 (stereo partly shown) [Example 108] | – | 10 to 50 µM | – |
| CCCOC(=O)[C@@H]1C2C(=O)CC(c3ccc(O)cc32)[C@H]1C(=O)OCCC[Si](C)(C)C (stereo partly shown) [Example 109] | – | 10 to 50 µM | – |
